Experimental data: paper PMC7657476, “An improved whole life cycle culture protocol for the hydrozoan genetic model Clytia hemisphaerica” (Biology Open, 2020)
Square brackets hold non-standard residues; d marks the D form. Ends that are not written are not given here. pGlu = O=C1CC[C@@H](C(=O)O)N1

Test system: Clytia hemisphaerica planula larvae
Experiment: Metamorphosis (settlement) induction of planula larvae by synthetic GLW-amide neuropeptides
Format: in vivo
Details: for Metamorphosis efficiency, Average: peptide concentration not given
Description: (1) Culture planula larvae in MFSW containing penicillin and streptomycin. (2) Wash the surface of large glass slides (75 mm×50 mm) with warm tap water (40–50°C) and dry. Place them in 100 mm diameter petri dishes. (3) Dilute GLW-amide peptide stock solution (1–5 mM in distilled water, stored at −20°C) just prior to use in MFSW (4 ml/large slide). Recommended final concentration for GLW-amide-6 is 0.5 µM. (4) Using a plastic transfer pipette, carefully pour 0.1 ml/cm^2 or more peptide-containing sea water over the glass slide (4 ml for large glass slides, Fig. S1F). (5) Transfer 2.5–3-day-old planulae using a glass pipette. Disperse them as the settlement starts quickly. (6) Cover the dish with a lid to minimize the water evaporation and keep the dish undisturbed. (7) Planula will be firmly settled in several hours after peptide treatment. Transfer slides to polyp tanks, not later than 16 h after induction. (8) Start to feed smashed Artemia once the primary polyps have extended tentacles and open mouths. (9) Once the colony contains multiple gastrozooids, it can be fed normally with live Artemia nauplii.
Metamorphosis of planula larvae was induced by transferring them onto glass slides covered with at least 0.1 ml/cm^2 of sea water containing synthetic neuropeptides (Fig. 2E). A selection of synthetic amidated peptides derived from the neuropeptide precursors Che-PP2 and Che-PP11 ([Takeda et al., 2018]) were tested as metamorphosis inducers (Table 2) on 3-day-old planula larvae obtained by crossing Z13 (male) and Z11 (female) strains. Planula attach firmly onto the slide within a few hours (Fig. 1C, left). Metamorphosis efficiency was measured by successful settlement on the slide at 12 h, as the timing of stalk extension is variable, from several hours to days.

Row | Substance | Planula settlement efficiency (previous conditions, 1 µM peptide, variable (Fig. 7)) | Planula settlement on the glass slide (0.3 µM peptide, settlement scored at 12 h, 5 repeats of 20 planulae (Fig. 7)) | Lowest concentration active in inducing metamorphosis (3-day-old planulae (Z13 x Z11) on glass slide in sea water containing peptide, settlement scored at 12 h, 5 repeats of 20 planulae (Fig. 7)) | Planula settlement efficiency (newly designed peptide, concentration not printed at this place (Fig. 7)) | Metamorphosis efficiency, Average (substrate agarose (2%), sample size 96–98, 4 repeats) | Metamorphosis efficiency, Average (substrate glass, sample size 90–99, 5 repeats) | Metamorphosis efficiency, Average (substrate plastic (polypropyrene), sample size 90–100, 5 repeats)
1 | GNPPGLW-NH2 [GLW-amide-2, synthetic GLW-amide neuropeptide from Clytia transcriptome (precursor PP11), previously used to trigger metamorphosis] | ≥ 40% | – | – | – | – | – | –
2 | [pGlu]QQAPKGLW-NH2 [GLW-amide-6, synthetic GLW-amide neuropeptide derived from precursor Che-PP11] | – | virtually all | 0.3 µM | ~100% | 96.5% | 98.6% | 99.9%
